The source of these data is doi:10.1101/2020.06.24.169508v1 (biorxiv, 2020).

The target in assay [1] is T1, VhChiP (chitooligosaccharide-specific porin, chitoporin) (Vibrio harveyi, UniProt L0RVU0).
T1 sequence (L0RVU0 26-375): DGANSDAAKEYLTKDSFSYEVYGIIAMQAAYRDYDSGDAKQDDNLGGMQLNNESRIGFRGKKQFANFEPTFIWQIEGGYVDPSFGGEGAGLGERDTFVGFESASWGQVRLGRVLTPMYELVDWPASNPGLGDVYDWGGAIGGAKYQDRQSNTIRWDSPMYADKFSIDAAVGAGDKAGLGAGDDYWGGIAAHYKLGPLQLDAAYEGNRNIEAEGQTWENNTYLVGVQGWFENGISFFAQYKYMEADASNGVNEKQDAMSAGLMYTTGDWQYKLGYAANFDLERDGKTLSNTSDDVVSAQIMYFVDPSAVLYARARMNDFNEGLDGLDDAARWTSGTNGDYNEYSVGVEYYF
Briefly: biochemical. As to conditions: read-out: WT ΔTm (fluorescence).

In assay [2] the target is T1, VhChiP (chitooligosaccharide-specific porin, chitoporin). Briefly: intrinsic tryptophan fluorescence titration. The class given is binding. Particulars: 20 mM phosphate pH 7.4, 0.2% LDAO, 25 °C; one-site fit.
The target is the same in assay [3]. Briefly: biochemical. Particulars: read-out: WT ΔTm (CD).

Broadly, the ΔTm is the shift of the melting midpoint relative to a reference. As for `CC(=O)N[C@H]1[C@H](O[C@H]2[C@H](O)[C@@H](NC(C)=O)C(O)O[C@@H]2CO)O[C@H](CO)[C@@H](O)[C@@H]1O` (stereo partly shown) [Chitobiose], the ΔTm at 1000 µM in assay [1] is 4 °C. For the same molecule, in assay [2], the K is listed as 0.1 ± 0.04 ×10^5 M^-1. In addition, in assay [3], the shift in melting temperature (ΔTm) at 100 µM was determined as 2.1 °C.
`CC(=O)N[C@H]1[C@H](O[C@H]2[C@H](O)[C@@H](NC(C)=O)[C@H](O[C@H]3[C@H](O)[C@@H](NC(C)=O)C(O)O[C@@H]3CO)O[C@@H]2CO)O[C@H](CO)[C@@H](O[C@@H]2O[C@H](CO)[C@@H](O[C@@H]3O[C@H](CO)[C@@H](O[C@@H]4O[C@H](CO)[C@@H](O)[C@H](O)[C@H]4NC(C)=O)[C@H](O)[C@H]3NC(C)=O)[C@H](O)[C@H]2NC(C)=O)[C@@H]1O` (stereo partly shown) [Chitohexaose]: in assay [1], the ΔTm at 1000 µM was determined as 8 °C. For the same molecule, the K in assay [2] is reported as 13 ± 0.5 ×10^5 M^-1. In assay [3], the ΔTm at 100 µM is 7 °C.
On to `CC(=O)N[C@H]1C(O)O[C@H](CO)[C@@H](O)[C@@H]1O` (stereo partly drawn) [D-GlcNAc], for which the ΔTm at 1000 µM in assay [1] amounted to 2 °C.
Consider `CC(=O)N[C@H]1[C@H](O[C@H]2[C@H](O)[C@@H](NC(C)=O)[C@H](O[C@H]3[C@H](O)[C@@H](NC(C)=O)C(O)O[C@@H]3CO)O[C@@H]2CO)O[C@H](CO)[C@@H](O[C@@H]2O[C@H](CO)[C@@H](O[C@@H]3O[C@H](CO)[C@@H](O)[C@H](O)[C@H]3NC(C)=O)[C@H](O)[C@H]2NC(C)=O)[C@@H]1O` (stereo partly shown) [Chitopentaose], for which, in assay [1], the ΔTm at 1000 µM worked out at 6 °C. For the same molecule, the K in assay [2] is reported as 3.8 ± 0.2 ×10^5 M^-1. Moreover, in assay [3], the shift in melting temperature (ΔTm) at 100 µM stood at 5.7 °C.
The like results for `CC(=O)N[C@H]1[C@H](O[C@H]2[C@H](O)[C@@H](NC(C)=O)C(O)O[C@@H]2CO)O[C@H](CO)[C@@H](O[C@@H]2O[C@H](CO)[C@@H](O[C@@H]3O[C@H](CO)[C@@H](O)[C@H](O)[C@H]3NC(C)=O)[C@H](O)[C@H]2NC(C)=O)[C@@H]1O` (stereo partly shown) [Chitotetraose] were, in that order, 5 °C, 1.4 ± 0.01 ×10^5 M^-1 and 3.8 °C.
The like results for `CC(=O)N[C@H]1[C@H](O[C@H]2[C@H](O)[C@@H](NC(C)=O)C(O)O[C@@H]2CO)O[C@H](CO)[C@@H](O[C@@H]2O[C@H](CO)[C@@H](O)[C@H](O)[C@H]2NC(C)=O)[C@@H]1O` (stereo partly shown) [Chitotriose] were, in that order, 4 °C, 0.5 ± 0.03 ×10^5 M^-1 and 3.2 °C.
